Results taken from ChEMBL document CHEMBL4765344, “Expanding the anticancer potential of 1,2,3-triazoles via simultaneously targeting Cyclooxygenase-2, 15-lipoxygenase and tumor-associated carbonic anhydrases” (Eur J Med Chem, 2020).

What was measured:
WI-38 = test: Cytotoxicity against human WI-38 cells assessed as reduction in cell viability after 72 hrs by SRB assay; format: cell-based; conditions: WI-38, 72 h
MCF7 [1] = test: Induction of cell cycle arrest in human MCF7 cells assessed as accumulation at S phase at IC50 measured after 24 hrs by propidium iodide/RNase staining based flow cytometry (reference value: 29.88%); format: functional
MCF7 [2] = test: Induction of cell cycle arrest in human MCF7 cells assessed as increase in accumulation at pre-G1 phase at IC50 measured after 24 hrs by propidium iodide/RNase staining based flow cytometry relative to control; format: functional
A549 [3] = test: Induction of apoptosis in human A549 cells assessed as early apoptotic cells at IC50 measured after 24 hrs by annexin V-FITC staining based flow cytometry (reference value: 0.63%); format: functional
A549 [4] = test: Induction of apoptosis in human A549 cells assessed as caspase-9 expression at IC50 by ELISA (reference value: […] +/- […] ng/ml); format: functional
MCF7 [5] = test: Induction of cell cycle arrest in human MCF7 cells assessed as reduction in accumulation at G0/G1 phase at IC50 measured after 24 hrs by propidium iodide/RNase staining based flow cytometry relative to control; format: functional
[6] = Toxicity in ip dosed BALB/c mouse measured for 3 days; format: organism-based; conditions: in vivo, time 3 day
A549 [7] = test: Induction of apoptosis in human A549 cells assessed as Bax expression at IC50 by ELISA (reference value: 42.16 +/-6.2 pg/ml); format: functional
A549 [8] = test: Induction of apoptosis in human A549 cells assessed as Bcl2 expression at IC50 by ELISA (reference value: 9.04 +/-0.1 ng/ml); format: functional
MCF7 [9] = test: Antitumor activity against human MCF7 cells xenografted in BALB/c mouse assessed as reduction in tumor volume at 23 mg/kg, ip administered thrice a week for 28 days by vernier caliper analysis; format: functional; conditions: time 28 day
A549 [10] = test: Induction of apoptosis in human A549 cells assessed as late apoptotic cells at IC50 measured after 24 hrs by annexin V-FITC staining based flow cytometry (reference value: […]); format: functional
A549 [11] = test: Induction of apoptosis in human A549 cells assessed as necrotic cells at IC50 measured after 24 hrs by annexin V-FITC staining based flow cytometry (reference value: 1.01%); format: functional
MCF7 [12] = test: Antiproliferative activity against human MCF-7 cells assessed as inhibition of cell growth at 100 microM measured after 72 hrs by SRB assay; format: functional
A549 [13] = test: Antiproliferative activity against human A549 cells assessed as cell growth inhibition measured after 72 hrs by SRB assay; format: functional, cell-based; conditions: A549, 72 h
A549 [14] = test: Induction of cell cycle arrest in human A549 cells assessed as accumulation at S phase at IC50 measured after 24 hrs by propidium iodide/RNase staining based flow cytometry (reference value: 31.88%); format: functional
A549 [15] = test: Induction of apoptosis in human A549 cells assessed as fold change in Bcl2 expression at IC50 by ELISA relative to control; format: functional
MCF7 [16] = test: Induction of cell cycle arrest in human MCF7 cells assessed as accumulation at pre-G1 phase at IC50 measured after 24 hrs by propidium iodide/RNase staining based flow cytometry (reference value: 1.96%); format: functional
MCF7 [17] = test: Induction of cell cycle arrest in human MCF7 cells assessed as accumulation at G0/G1 phase at IC50 measured after 24 hrs by propidium iodide/RNase staining based flow cytometry (reference value: 51.72%); format: functional
MCF7 [18] = test: Induction of cell cycle arrest in human MCF7 cells assessed as increase in accumulation at G2/M phase at IC50 measured after 24 hrs by propidium iodide/RNase staining based flow cytometry relative to control; format: functional
MCF7 [19] = test: Induction of apoptosis in human MCF-7 cells assessed as necrotic cells at IC50 measured after 24 hrs by Annexin V-FITC/propidium iodide staining based flow cytometry (reference value: 1.27%); format: functional
HepG2 [20] = test: Antiproliferative activity against human HepG2 cells assessed as inhibition of cell growth at 100 microM measured after 72 hrs by SRB assay; format: functional
MCF7 [21] = test: Induction of apoptosis in human MCF-7 cells assessed as early apoptotic cells at IC50 measured after 24 hrs by Annexin V-FITC/propidium iodide staining based flow cytometry (reference value: 0.4%); format: functional
MCF7 [22] = test: Induction of apoptosis in human MCF-7 cells assessed as total apoptotic cells at IC50 measured after 24 hrs by Annexin V-FITC/propidium iodide staining based flow cytometry (reference value: 0.69%); format: functional
MCF7 [23] = test: Induction of apoptosis in human MCF7 cells assessed as caspase-9 expression at IC50 by ELISA (reference value: 1.77 +/- 0.1 ng/ml); format: functional
MCF7 [24] = test: Induction of apoptosis in human MCF7 cells assessed as fold change in Bcl-2 expression at IC50 by ELISA relative to control; format: functional
A549 [25] = test: Induction of cell cycle arrest in human A549 cells assessed as accumulation at pre-G1 phase at IC50 measured after 24 hrs by propidium iodide/RNase staining based flow cytometry (reference value: 1.93%); format: functional
A549 [26] = test: Induction of apoptosis in human A549 cells assessed as fold change in Bax expression at IC50 by ELISA relative to control; format: functional
MCF7 [27] = test: Induction of cell cycle arrest in human MCF7 cells assessed as accumulation at G2/M phase at IC50 measured after 24 hrs by propidium iodide/RNase staining based flow cytometry (reference value: 18.4%); format: functional
MCF7 [28] = test: Induction of apoptosis in human MCF7 cells assessed as fold change in Bax expression at IC50 by ELISA relative to control; format: functional
A549 [29] = test: Induction of apoptosis in human A549 cells assessed as fold change in caspase-9 expression at IC50 by ELISA relative to control; format: functional
HepG2 [30] = test: Antiproliferative activity against human HepG2 cells assessed as cell growth inhibition measured after 72 hrs by SRB assay; format: functional, cell-based; conditions: HepG2, 72 h
MCF7 [31] = test: Induction of apoptosis in human MCF7 cells assessed as Bcl-2 expression at IC50 by ELISA (reference value: 7.49 +/- 0.1 ng/ml); format: functional
A549 [32] = test: Induction of apoptosis in human A549 cells assessed as total apoptotic cells at IC50 measured after 24 hrs by Annexin V-FITC/propidium iodide staining based flow cytometry (reference value: 0.92%); format: functional
A549 [33] = test: Induction of cell cycle arrest in human A549 cells assessed as accumulation at G0/G1 phase at IC50 measured after 24 hrs by propidium iodide/RNase staining based flow cytometry (reference value: 58.26%); format: functional
A549 [34] = test: Induction of cell cycle arrest in human A549 cells assessed as accumulation at G2/M phase at IC50 measured after 24 hrs by propidium iodide/RNase staining based flow cytometry (reference value: 9.86%); format: functional
MCF7 [35] = test: Induction of apoptosis in human MCF7 cells assessed as Bax expression at IC50 by ELISA (reference value: 45.46 +/- 3.6 pg/ml); format: functional
A549 [36] = test: Antiproliferative activity against human A549 cells assessed as inhibition of cell growth at 100 microM measured after 72 hrs by SRB assay; format: functional
MCF7 [37] = test: Induction of apoptosis in human MCF7 cells assessed as fold change in caspase-9 expression at IC50 by ELISA relative to control; format: functional
MCF7 [38] = test: Antiproliferative activity against human MCF-7 cells assessed as cell growth inhibition measured after 72 hrs by SRB assay; format: functional, cell-based; conditions: MCF7, 72 h
[39] = Toxicity in BALB/c mouse xenografted with human MCF7 cells assessed as body weight at 23 mg/kg, ip administered thrice a week for 28 days measured on day 28 (reference value: 31.3 gms); format: organism-based; conditions: in vivo, 672 h, time 28 day
MCF7 [40] = test: Induction of apoptosis in human MCF-7 cells assessed as late apoptotic cells at IC50 measured after 24 hrs by Annexin V-FITC/propidium iodide staining based flow cytometry (reference value: […]); format: functional

Question: For `O=c1[nH]cc(F)c(=O)[nH]1` [FLUOROURACIL], which IC50 (WI-38) is on record?
Answer: 78.5 µM

Question: What about the Activity (MCF7 [1]) of the same compound?
Answer: 23.84%

Question: What about the “fold change (FC)” value (MCF7 [2]) of the same compound?
Answer: 14

Question: What about the Activity (A549 [3]) of the same compound?
Answer: 4.29%

Question: And the Activity (A549 [4])?
Answer: 13.98 ng/mL

Question: What about the “fold change (FC)” value (MCF7 [5]) of the same compound?
Answer: 1.5

Question: And the LD50 at 72 h [6]?
Answer: 57.2 mg/kg

Question: What about the Activity (A549 [7]) of the same compound?
Answer: 376.9 pg/mL

Question: What about the Activity (A549 [8]) of the same compound?
Answer: 6.21 ng/mL

Question: What about the Activity (MCF7 [9]) of the same compound?
Answer: 0.41 cm3

Question: And the Activity (A549 [10])?
Answer: 20.68%

Question: What about the Activity (A549 [11]) of the same compound?
Answer: 3.11%

Question: What about the inhibition at 100 µM (MCF7 [12]) of the same compound?
Answer: 90.7%

Question: And the IC50 (A549 [13])?
Answer: 0.69 µM

Question: What about the Activity (A549 [14]) of the same compound?
Answer: 25.71%

Question: And the “fold change (FC)” value (A549 [15])?
Answer: 0.68

Question: And the Activity (MCF7 [16])?
Answer: 27.52%

Question: And the Activity (MCF7 [17])?
Answer: 34.09%

Question: What about the “fold change (FC)” value (MCF7 [18]) of the same compound?
Answer: 2.3

Question: And the Activity (MCF7 [19])?
Answer: 2.55%

Question: What about the inhibition at 100 µM (HepG2 [20]) of the same compound?
Answer: 80.7%

Question: And the Activity (MCF7 [21])?
Answer: 7.26%

Question: And the Activity (MCF7 [22])?
Answer: 24.97%

Question: What about the Activity (MCF7 [23]) of the same compound?
Answer: 20.87 ng/mL

Question: And the “fold change (FC)” value (MCF7 [24])?
Answer: 0.3

Question: What about the Activity (A549 [25]) of the same compound?
Answer: 28.08%

Question: And the “fold change (FC)” value (A549 [26])?
Answer: 8.93

Question: And the Activity (MCF7 [27])?
Answer: 42.07%

Question: What about the “fold change (FC)” value (MCF7 [28]) of the same compound?
Answer: 6.37

Question: And the “fold change (FC)” value (A549 [29])?
Answer: 11.63

Question: What about the IC50 (HepG2 [30]) of the same compound?
Answer: 0.52 µM

Question: What about the Activity (MCF7 [31]) of the same compound?
Answer: 2.23 ng/mL

Question: And the Activity (A549 [32])?
Answer: 24.97%

Question: What about the Activity (A549 [33]) of the same compound?
Answer: 36.47%

Question: What about the Activity (A549 [34]) of the same compound?
Answer: 37.82%

Question: And the Activity (MCF7 [35])?
Answer: 289.9 pg/mL

Question: And the inhibition at 100 µM (A549 [36])?
Answer: 89.3%

Question: And the “fold change (FC)” value (MCF7 [37])?
Answer: 11.8

Question: And the IC50 (MCF7 [38])?
Answer: 0.59 µM

Question: What about the Activity [39] of the same compound?
Answer: 24.5 g

Question: And the Activity (MCF7 [40])?
Answer: 17.71%
